According to patent publication US10227347B2, “Purinyl-N-hydroxyl pyrimidine formamide derivative, preparation methods and uses thereof” (Guizhou Bailing Group Pharmaceutical CO., LTD., priority 2015, dated 2019):
Like-named read-outs stand apart in the source and are kept apart here.

Legend:
[1] = biological target: T1, HDAC1 (Homo sapiens, UniProt Q13547); assay: In vitro HDAC1 enzymatic activity inhibition (Lys-Ac-AMC substrate); type: biochemical
T1 construct: purchased BPS Bioscience
Outline: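 Fluorogenic Lys-Ac-AMC deacetylation with trypsin development in modified Tris buffer pH 7.0; compound preincubated with enzyme 15 min at ambient temperature before substrate addition. Final HDAC1 6 nM, trypsin 0.05 μM, Ac-peptide 8 μM. IC50 from four-parameter fit of % inhibition versus concentration.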

[2] = biological target: T2, PI3Kα (Homo sapiens, UniProt P42336); assay: PI3Kα activity inhibition (Kinase-Glo); type: biochemical
T2 construct: purchased Invitrogen PV4788
Outline: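 Kinase-Glo luminescence read-out of remaining ATP after PI3K reaction with PIP2 and ATP substrates in 50 mM HEPES pH 7.5, 3 mM MgCl2, 1 mM EGTA, 100 mM NaCl, 0.03% CHAPS, 2 mM DTT. Incubated at ambient temperature, 1 h for PI3Kα, 2 h for PI3Kδ. IC50 from four-parameter fit of % inhibition versus concentration.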

[3] = biological target: T3, PI3Kβ (Homo sapiens, UniProt P42338); assay: PI3Kβ activity inhibition (ADP-Glo); type: biochemical; details: Table 1, graded
T3 construct: purchased Millipore 14-603-K
T3 sequence (P42338 whole entry, species assumed): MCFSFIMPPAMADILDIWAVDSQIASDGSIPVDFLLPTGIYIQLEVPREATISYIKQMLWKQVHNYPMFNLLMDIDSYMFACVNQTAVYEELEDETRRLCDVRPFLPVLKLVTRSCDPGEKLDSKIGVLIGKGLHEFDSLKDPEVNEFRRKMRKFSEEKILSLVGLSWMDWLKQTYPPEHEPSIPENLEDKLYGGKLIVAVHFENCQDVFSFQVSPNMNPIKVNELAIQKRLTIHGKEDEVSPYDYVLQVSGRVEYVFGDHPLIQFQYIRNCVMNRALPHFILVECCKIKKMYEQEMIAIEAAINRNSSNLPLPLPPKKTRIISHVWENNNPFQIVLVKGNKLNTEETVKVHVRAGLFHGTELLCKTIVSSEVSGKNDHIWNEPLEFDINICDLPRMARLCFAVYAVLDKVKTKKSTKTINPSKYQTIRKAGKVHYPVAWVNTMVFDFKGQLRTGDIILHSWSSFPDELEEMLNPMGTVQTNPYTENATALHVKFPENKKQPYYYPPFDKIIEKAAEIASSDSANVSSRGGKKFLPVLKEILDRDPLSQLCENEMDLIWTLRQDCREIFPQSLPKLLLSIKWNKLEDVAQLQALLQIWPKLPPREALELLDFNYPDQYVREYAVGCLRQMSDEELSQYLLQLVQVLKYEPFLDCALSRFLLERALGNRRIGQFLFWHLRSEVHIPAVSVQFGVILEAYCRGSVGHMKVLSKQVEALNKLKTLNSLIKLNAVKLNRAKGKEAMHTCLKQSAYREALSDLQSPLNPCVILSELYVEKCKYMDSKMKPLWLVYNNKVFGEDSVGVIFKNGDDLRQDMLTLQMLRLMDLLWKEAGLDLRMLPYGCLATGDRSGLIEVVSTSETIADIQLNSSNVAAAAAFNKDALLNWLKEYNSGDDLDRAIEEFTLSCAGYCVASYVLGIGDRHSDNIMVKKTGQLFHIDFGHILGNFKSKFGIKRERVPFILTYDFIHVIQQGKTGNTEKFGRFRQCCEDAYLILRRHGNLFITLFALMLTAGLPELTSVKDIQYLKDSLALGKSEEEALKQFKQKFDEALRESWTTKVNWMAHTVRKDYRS
T3 sequence (P27986 whole entry partner, species assumed): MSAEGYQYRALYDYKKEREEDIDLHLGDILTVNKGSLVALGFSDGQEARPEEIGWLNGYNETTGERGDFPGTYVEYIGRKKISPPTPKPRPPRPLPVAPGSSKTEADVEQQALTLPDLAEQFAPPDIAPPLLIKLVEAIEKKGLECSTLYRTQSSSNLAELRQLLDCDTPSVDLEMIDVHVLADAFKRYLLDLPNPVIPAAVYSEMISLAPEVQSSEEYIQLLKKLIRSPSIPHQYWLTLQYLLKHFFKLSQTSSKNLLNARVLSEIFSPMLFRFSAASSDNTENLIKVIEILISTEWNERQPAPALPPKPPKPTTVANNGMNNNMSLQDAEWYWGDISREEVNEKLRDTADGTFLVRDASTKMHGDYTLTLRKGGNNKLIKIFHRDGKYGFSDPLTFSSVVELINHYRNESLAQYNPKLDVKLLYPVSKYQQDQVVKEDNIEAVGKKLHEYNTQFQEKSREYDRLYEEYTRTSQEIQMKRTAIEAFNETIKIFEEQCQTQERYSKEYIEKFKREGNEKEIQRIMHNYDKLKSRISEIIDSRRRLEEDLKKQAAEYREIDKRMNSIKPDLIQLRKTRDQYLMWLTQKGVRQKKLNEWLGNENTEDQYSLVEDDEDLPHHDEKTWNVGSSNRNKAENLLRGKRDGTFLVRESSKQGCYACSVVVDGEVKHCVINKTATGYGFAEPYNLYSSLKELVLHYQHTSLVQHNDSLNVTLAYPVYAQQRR
Procedure: (§1) Detecting the inhibition capability of the compound to PI3Kβ and PI3Kγ activities with ADP-Glo (purchased from Promege Company; Catalog No.: v9102/3). […] The reaction system also comprises substrates as PIP2 and ATP. The reaction buffer system comprises 50 mM HEPES, 3 mM MgCl2, 1 mM EGTA, 100 mM NaCl, 0.03% CHAPS and 2 mM DTT. The pH value of the reaction buffer is 7.5. […] Mixing the system evenly for incubation under ambient temperature for 1 h; getting a new 384 well plate and transferring 5 μL reaction liquid from the each well of original 384 well plate to the corresponding wells of the new 384 well plate; adding 5 μL ADP-Glo which has been preheated to ambient temperature into each new reaction well to terminate the reaction; oscillating it slowly in dark place for 40 min's incubation after it is mixed evenly; adding 10 μL testing liquid in each reaction well, oscillating it for 1 min to mix evenly and incubating it for 1 h, then measuring the fluorescence intensity with a microplate reader and analyzing the result data with the software GraphPad Prism.
(§2) Calculating the value of IC50 as per the formula: Y=background data+(top data−background data)/(1+10^((Log IC50−X)*rate of curve))
(§3) Where, Y refers to the inhibition ratio (%) and X refers to the compound concentration.

[4] = biological target: T4, PI3Kδ (Homo sapiens, UniProt O00329); assay: PI3Kδ activity inhibition (Kinase-Glo); type: biochemical; details: Table 1, graded
T4 construct: purchased Millipore 14-604-K
Procedure: Detecting the inhibition capability of the compound to PI3Kα and PI3Kδ activities with Kinase-Glo (purchased from Promege Company; Catalog No.: V3771). […] The reaction system also comprises substrates as PIP2 (4, 5-diphosphoinositide, purchased from Life Technologies Company) and ATP (triphosadenine, purchased from Sigma Company). The reaction buffer system comprises 50 mM HEPES (4-hydroxyethylpiperazine ethane sulfonic acid), 3 mM MgCl2, 1 mM EGTA (ethylene glycol bis(2-amino ethylether)quadrol), 100 mM NaCl, 0.03% CHAPS (3-[3-(cholamidopropyl)dimethylamino]-1-propanesulfonic acid), 2 mM DTT (dithiothreitol). The pH value of the reaction buffer is 7.5. […] Mixing the system evenly for incubation under ambient temperature (for 1 h in PI3Kα test and for 2 h in PI3Kδ test). After incubation, adding 10 μL Kinase-Glo which has been preheated to ambient temperature into each reaction well to terminate the reaction; shaking it in dark place for 15 min after it is mixed evenly, then measuring the fluorescence intensity with a microplate reader and analyzing the result data with the software GraphPad Prism.
as §2, §3

[5] = biological target: T5, PI3Kγ (Homo sapiens, UniProt P48736); assay: PI3Kγ activity inhibition (ADP-Glo); type: biochemical; details: Table 1, graded
T5 construct: purchased Invitrogen PR8641C
T5 sequence (P48736 whole entry): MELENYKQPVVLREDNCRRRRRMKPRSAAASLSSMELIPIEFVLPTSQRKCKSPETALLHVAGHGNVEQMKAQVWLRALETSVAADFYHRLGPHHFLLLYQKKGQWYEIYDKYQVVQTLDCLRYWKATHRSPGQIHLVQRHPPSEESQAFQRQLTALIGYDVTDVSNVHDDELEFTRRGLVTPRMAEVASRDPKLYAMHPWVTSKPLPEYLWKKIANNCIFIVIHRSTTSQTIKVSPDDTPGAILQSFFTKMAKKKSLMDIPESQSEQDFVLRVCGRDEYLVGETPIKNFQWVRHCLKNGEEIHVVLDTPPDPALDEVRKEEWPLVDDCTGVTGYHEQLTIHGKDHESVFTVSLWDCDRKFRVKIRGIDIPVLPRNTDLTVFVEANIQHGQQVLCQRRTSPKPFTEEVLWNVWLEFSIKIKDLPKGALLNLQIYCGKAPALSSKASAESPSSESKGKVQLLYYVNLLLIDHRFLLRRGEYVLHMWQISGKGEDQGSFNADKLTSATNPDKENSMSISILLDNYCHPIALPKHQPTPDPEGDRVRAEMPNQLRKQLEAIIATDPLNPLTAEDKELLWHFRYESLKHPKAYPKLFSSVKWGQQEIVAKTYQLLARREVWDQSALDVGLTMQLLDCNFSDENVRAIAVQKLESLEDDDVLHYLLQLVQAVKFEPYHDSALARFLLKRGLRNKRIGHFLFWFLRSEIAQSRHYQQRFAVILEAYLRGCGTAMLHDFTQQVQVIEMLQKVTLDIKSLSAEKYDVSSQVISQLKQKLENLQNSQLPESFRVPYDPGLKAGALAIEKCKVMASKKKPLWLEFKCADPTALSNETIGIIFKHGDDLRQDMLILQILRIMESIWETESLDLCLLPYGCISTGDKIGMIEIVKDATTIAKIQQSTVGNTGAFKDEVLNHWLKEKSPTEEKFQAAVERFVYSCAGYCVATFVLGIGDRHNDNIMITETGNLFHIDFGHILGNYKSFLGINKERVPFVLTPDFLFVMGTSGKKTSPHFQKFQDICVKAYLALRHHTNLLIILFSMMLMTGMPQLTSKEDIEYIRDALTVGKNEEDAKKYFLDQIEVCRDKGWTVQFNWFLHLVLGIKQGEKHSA
Procedure: as §1, §2, §3

[6] = biological target: T6, mTOR (Homo sapiens, UniProt P42345); assay: mTOR activity inhibition (ULight-4E-BP1 peptide); type: biochemical; details: Table 1, graded
T6 construct: purchased Millipore 14-770
T6 sequence (P42345 1362-2549 limits assumed): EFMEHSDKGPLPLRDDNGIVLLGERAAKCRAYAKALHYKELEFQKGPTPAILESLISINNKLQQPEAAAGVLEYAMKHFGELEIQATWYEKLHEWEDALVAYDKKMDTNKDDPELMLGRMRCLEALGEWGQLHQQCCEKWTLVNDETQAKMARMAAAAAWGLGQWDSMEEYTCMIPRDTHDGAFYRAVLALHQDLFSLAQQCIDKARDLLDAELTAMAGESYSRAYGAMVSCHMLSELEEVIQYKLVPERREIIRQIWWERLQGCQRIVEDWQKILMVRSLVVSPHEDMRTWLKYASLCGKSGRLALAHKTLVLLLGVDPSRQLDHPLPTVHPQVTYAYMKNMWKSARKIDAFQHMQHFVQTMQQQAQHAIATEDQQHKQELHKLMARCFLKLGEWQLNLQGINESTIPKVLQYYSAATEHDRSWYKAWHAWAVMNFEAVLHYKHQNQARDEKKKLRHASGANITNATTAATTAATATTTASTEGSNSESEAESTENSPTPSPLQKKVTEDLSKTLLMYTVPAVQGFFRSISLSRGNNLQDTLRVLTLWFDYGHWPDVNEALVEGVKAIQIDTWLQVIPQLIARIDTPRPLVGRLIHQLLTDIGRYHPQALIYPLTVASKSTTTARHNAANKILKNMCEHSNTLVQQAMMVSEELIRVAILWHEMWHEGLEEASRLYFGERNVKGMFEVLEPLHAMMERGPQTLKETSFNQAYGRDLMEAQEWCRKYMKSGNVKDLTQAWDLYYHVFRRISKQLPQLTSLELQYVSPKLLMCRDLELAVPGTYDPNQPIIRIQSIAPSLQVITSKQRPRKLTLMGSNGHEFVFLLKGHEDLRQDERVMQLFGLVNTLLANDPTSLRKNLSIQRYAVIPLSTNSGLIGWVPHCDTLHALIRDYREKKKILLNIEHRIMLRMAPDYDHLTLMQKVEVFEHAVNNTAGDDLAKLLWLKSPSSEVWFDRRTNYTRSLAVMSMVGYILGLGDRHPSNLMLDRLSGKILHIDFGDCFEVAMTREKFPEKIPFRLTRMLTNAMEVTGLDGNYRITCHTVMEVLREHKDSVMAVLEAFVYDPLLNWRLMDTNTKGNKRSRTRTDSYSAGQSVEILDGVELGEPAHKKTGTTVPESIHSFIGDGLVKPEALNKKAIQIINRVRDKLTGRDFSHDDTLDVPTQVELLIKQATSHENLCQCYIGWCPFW
Procedure: mTOR protein is purchased from Millipore Company (Catalog No.: 14-770). The reaction buffer system comprises 50 mM HEPES, 10 mM MgCl2, 1 mM EGTA, 3 mM […], 0.01% Tween-20 (purchased from Chengdu Kelong Chemical Regent Factory) and 2 mM DTT. The pH value of the reaction buffer is 7.5. Preparing 10 μL reaction system in corresponding wells of the 384 well plate, which contains the compositions as: the compound with designed concentration (or blank control), mTOR protein (with the concentration of 2.5 nM), ULight-4E-BP1 (containing the 37th and the 46th threonine residues, Thr37/46) peptide (purchased from PE Company, Catalog No.: TRF0128-M) and ATP substrates (ULight-4E-BP1 peptide, with the concentration of 50 nM and ATP, with the concentration of […]). Mixing it evenly for incubation under ambient temperature for 1 h; adding 10 μL testing liquid containing EDTA (ethylenediaminetetraacetic acid) and Eu-anti-phosphorylation-4E-BP1 (Thr37/46) antibody (purchased from PE Company, Catalog No.: TRF0216-M) into the reaction wells (after the testing liquid is added, the concentration of EDTA is 8 mM and the concentration of Eu-phosphorylation-4E-BP1 antibody is 2 nM); mixing it evenly and incubating it for 1 h under ambient temperature, then measuring the fluorescence intensity with a microplate reader and analyzing the result data with the software GraphPad Prism.
as §2, §3

[7] = system: MV4-11 cells (acute myeloid leukemia); assay: Cell proliferation inhibition, MV4-11 (cck-8); type: cell-based; details: Homo sapiens
Procedure: (§4) The tumor cell lines are purchased from American Type Culture Collection (ATCC) and cultivated to the status of logarithmic growth as per the cultural method recommended by ATCC. The cells in logarithmic phase are spread on a 96 well plate as per 2000-3000/well; as for anchorage-dependent cells, the compound should be added in the test wells at certain concentration for incubation for 96 h after cell adherence. Determining cell proliferation activities with method MTT for tumor cells representing solid tumor model and with method cck-8 for tumor cells representing hematologic tumor model, and analyzing the result data with the software GraphPad Prism.
(§5) Calculating the value of IC50 as per the formula: Y=background data+(top data−background data)/(1+10^((Log IC50−X)*rate of curve)). Where, Y refers to the inhibition ratio (%) and X refers to the compound concentration.

[8] = system: hct116 cells (colon cancer); assay: Cell proliferation inhibition, hct116 (MTT); type: cell-based; details: Homo sapiens, HCT-116
Procedure: as §4, §5

[9] = system: A2780s cells (ovarian cancer); assay: Cell proliferation inhibition, A2780s (MTT); type: cell-based; details: Homo sapiens
Procedure: as §4, §5

[10] = system: human breast cancer MDA-MB-231 subcutaneous tumor; assay: Subcutaneous tumor model, human breast cancer MDA-MB-231; details: 30 mg/kg, once per 7 days, intraperitoneal
Procedure: Cell MM1S is cultured in RPMI1640 medium (HyClone) which contains 10% fetal calf serum (Hohhot Caoyuan Lvye Bioengineering Material Co., Ltd.) and 100 U/mL penicillin and streptomycin (Beyotime).
3) Inoculation, grouping and treatment: collecting cells in logarithmic phase under aseptic conditions and counting; diluting the single cell suspension with the medium containing neither fetal calf serum nor antibiotics to 1×10^7-8 cell/mL for standby. Mixing the cell suspension; injecting 100 μL of cell suspension (5×10^6-2×10^7 cells) subcutaneously with a 1 mL injector on the right side of the back of animals. Weeding out the animals with oversized and undersized tumor when the tumor grows to an average volume of about 120 mm^3 and grouping the qualified animals for treatment and drug administration. Refer to Table 7 for each grouping model and drug administration frequency. Measuring the weight of each model per 2 days and measuring the length and width of the tumor with a vernier caliper; killing the tested animals through cervical dislocation and peeling off their tumors for weight measuring and photographing. Then calculating the tumor inhibition ratio (%) and evaluating the inhibition intensity to tumor with such tumor inhibition ratio.

[11] = system: human breast cancer MCF-7 subcutaneous tumor; assay: Subcutaneous tumor model, human breast cancer MCF-7; details: 30 mg/kg, once per 7 days, intraperitoneal
[12] = Table 1, graded, read-out: HDAC1 IC50
[13] = read-out: inhibition value IC50 to the activity of HDAC1
[14] = Table 1, graded, read-out: PI3Kα IC50
[15] = read-out: inhibition value IC50 to the activity of PI3Kα
[16] = 96 h incubation, read-out: Proliferation IC50, Acute myeloid leukemia MV4-11
[17] = 96 h incubation, read-out: Proliferation IC50, Colon cancer hct116
[18] = 96 h incubation, read-out: Proliferation IC50, Ovarian cancer A2780s
[19] = read-out: IC50 to proliferation of MV4-11 cells
[20] = read-out: IC50 to proliferation of hct116 cells
[21] = read-out: IC50 to proliferation of A2780s cells

T1 sequence (Q13547 whole entry, species assumed): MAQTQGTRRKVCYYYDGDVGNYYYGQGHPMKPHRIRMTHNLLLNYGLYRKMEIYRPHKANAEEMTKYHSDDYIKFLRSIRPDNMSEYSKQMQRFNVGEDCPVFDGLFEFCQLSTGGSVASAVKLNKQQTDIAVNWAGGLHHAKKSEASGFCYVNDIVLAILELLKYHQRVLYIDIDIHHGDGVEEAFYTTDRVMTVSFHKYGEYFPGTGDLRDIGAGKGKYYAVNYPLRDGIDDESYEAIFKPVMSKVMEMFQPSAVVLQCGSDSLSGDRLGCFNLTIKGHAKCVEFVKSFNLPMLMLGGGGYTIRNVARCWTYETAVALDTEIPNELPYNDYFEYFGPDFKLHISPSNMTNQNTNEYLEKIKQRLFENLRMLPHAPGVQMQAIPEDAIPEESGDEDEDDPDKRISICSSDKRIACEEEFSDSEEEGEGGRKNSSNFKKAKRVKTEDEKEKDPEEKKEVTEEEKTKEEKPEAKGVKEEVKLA

| IC50 [1, 12] [nM] | IC50 [1, 13] [nM] | IC50 [2, 14] [nM] | IC50 [2, 15] [nM] | IC50 [3] [nM] | IC50 [4] [nM] | IC50 [5] [nM] | IC50 [6] [nM] | IC50 [7, 16] [nM] | IC50 [8, 17] [nM] | IC50 [9, 18] [nM] | IC50 [7, 19] [nM] | IC50 [8, 20] [nM] | IC50 [9, 21] [nM] | Compound | Death [10] | Inhibitory rate (%) [10] [%] | Death [11] | Inhibitory rate (%) [11] [%] |
| --- | --- | --- | --- | --- | --- | --- | --- | --- | --- | --- | --- | --- | --- | --- | --- | --- | --- | --- |
| 100 to 1000 | < 100 | < 100 | < 100 | 100 to 1000 | 100 to 1000 | 100 to 1000 | 100 to 1000 | 100 to 1000 | 100 to 1000 | 100 to 1000 |  |  |  | CCN(Cc1nc2c(N3CCOCC3)nc(-c3ccc(OC)nc3)nc2n1C)c1ncc(C(=O)NO)cn1 [CLJ-5, N-hydroxy-2-(((2-(6-methoxyl-3-pyridyl)-9-methyl-6-morpholine-9H-purine-8-yl))methyl(ethyl)amino)pyrimidine-5-formamide] |  |  |  |  |
| 100 to 1000 |  | > 10000 |  | > 10000 | > 10000 | > 10000 | > 10000 | > 1000 | > 1000 | > 1000 |  |  |  | CCCN(Cc1nc2c(N3CCOCC3)nc(-c3ccc(OC)nc3)nc2n1C)c1ncc(C(=O)NO)cn1 [CLJ-6, N-hydroxy-2-(((2-(6-methoxyl-3-pyridyl)-9-methyl-6-morpholine-9H-purine-8-yl))methyl(propyl)amino)pyrimidine-5-formamide] |  |  |  |  |
| < 100 |  | < 100 | < 100 | 100 to 1000 | 100 to 1000 | 100 to 1000 | 100 to 1000 | 0.1 to 10 | 0.1 to 10 | 0.1 to 10 | 0.1 to 10 | 0.1 to 10 | 0.1 to 10 | CNc1ncc(-c2nc(N3CCOCC3)c3nc(CN(C)c4ncc(C(=O)NO)cn4)n(C)c3n2)cn1 [CLJ-12, 2-(((2-(4-aminemethylpyrimidine)-9-methyl-6-morpholine-9H-purine-8-yl))methyl(methyl)amino)-N-hydroxyl pyrimidine-5-formamide] |  |  |  |  |
| < 100 |  | < 100 | < 100 | 100 to 1000 | 100 to 1000 | 100 to 1000 | 100 to 1000 | 0.1 to 10 | 0.1 to 10 | 0.1 to 10 | 0.1 to 10 | 0.1 to 10 | 0.1 to 10 | Cc1ncc(-c2nc(N3CCOCC3)c3nc(CN(C)c4ncc(C(=O)NO)cn4)n(C)c3n2)cn1 [CLJ-13] |  |  |  |  |
| < 100 |  | > 10000 |  | > 10000 | > 10000 | > 10000 | > 10000 | 0.1 to 10 | 10 to 100 | 0.1 to 10 |  |  |  | CN(Cc1nc2c(N3CCOCC3)nc(-c3cnc4ccccc4c3)nc2n1C)c1ncc(C(=O)NO)cn1 [CLJ-14, 2-(((2-(quinoline-3-yl)-9-methyl-6-morpholine-9H-purine-8-yl))methyl(methyl)amino)-N-hydroxyl pyrimidine-5-formamide] |  |  |  |  |
| < 1 | < 1 | 1000 to 10000 |  | > 10000 | > 10000 | > 10000 | > 10000 | 10 to 100 | 10 to 100 | 10 to 100 |  |  |  | CN(Cc1nc2c(N3CCOCC3)nc(-c3ccc4[nH]ncc4c3)nc2n1C)c1ncc(C(=O)NO)cn1 [CLJ-15, 2-(((2-(1H-indazole-5-yl)-9-methyl-6-morpholine-9H-purine-8-yl))methyl(methyl)amino)-N-hydroxyl pyrimidine-5-formamide] |  |  |  |  |
|  |  |  |  |  |  |  |  |  |  |  |  |  |  | CC(=O)O[C@H]1C(=O)[C@@]2(C)[C@H]([C@H](OC(=O)c3ccccc3)[C@]3(O)C[C@H](OC(=O)[C@H](O)[C@@H](NC(=O)c4ccccc4)c4ccccc4)C(C)=C1C3(C)C)[C@]1(OC(C)=O)CO[C@@H]1C[C@@H]2O [Paclitaxel] | 0/6 | 59.19 | 0/6 | 77.73 |
